Results: publication PMC8218751, “Visualizing Borrelia burgdorferi Infection Using a Small-Molecule Imaging Probe” (Journal of Clinical Microbiology, 2021)

What was measured:
[1] = biological target: T1, E. coli HtpG (Escherichia coli, UniProt P0A6Z3); experiment: biochemical; assay type: binding
T1 construct: His6 (N); made in house; host or cells: E. coli BL21(DE3)
Experimental: (§1) Escherichia coli (strain BL21/DE3) genomic DNA was isolated from a lab culture generated from the cloning/expression bacterium (ThermoFisher catalog no. EC0114) by overnight proteinase K digestion at 56°C, high-salt clarification, and ethanol precipitation. […] Human Hsp90-alpha sequences were derived from cDNA generated from total mRNA of the human breast epithelial line, MCF10A. HtpG DNA sequences were PCR cloned from these DNAs using primers designed to allow in-frame cloning with GFP in the isopropyl-β-D-thiogalactopyranoside (IPTG)-inducible bacterial expression vector. […] Fusion protein cloning was done using the ligation-independent cloning procedure via single-nucleotide T4 DNA polymerase treatment of vector and purified PCR products followed by annealing of complementary single-strand ends before transformation into DH5 E. coli. […] Fusion protein synthesis was induced by incubation with 1 mM IPTG or autoinduction ([17]).
(§2) γ-linked ATP Sepharose matrix was generated as described previously by the Haystead lab ([18]). […] The clarified lysate was added to a column containing ATP-bound Sepharose. The column was washed with low-salt buffer (150 mM NaCl, 25 mM HEPES, pH 7.4, 1 mM dithiothreitol [DTT], and 60 mM MgCl2), followed by high-salt buffer (1 M NaCl, 25 mM HEPES, pH 7.4, 1 mM DTT, 0.1% IGEPAL, and 60 mM MgCl2) and once again low-salt buffer to remove unbound protein. Next, the resin with bound proteins (50 μl) was transferred to a 0.2-μm polyvinylidene fluoride filter 96-well plate (Corning) sitting on top of a black flat-bottomed 96-well catch plate (Corning). […] The eluted proteins were measured in a fluorescent plate reader to detect the GFP.
Subtle single amino acid differences are present within the catalytic clefts of these proteins, especially between residues that contact the nucleotide. […] We therefore reasoned that these differences may be sufficient to design small molecules that can similarly discriminate HtpG of stealth organisms. To test this hypothesis, we utilized a fluorescent-linked enzyme chemoproteomic strategy (FLECS) assay to test known Hsp90 inhibitors ([18]) for binding to various HtpG constructs. First, we cloned and expressed in E. coli recombinant N-terminal GFP-fusion forms of HtpG from B. burgdorferi, E. coli, and Treponema denticola, the oral spirochete, as well as human Hsp90. We then incubated lysate after protein expression with an ATP Sepharose resin to enable binding. In this assay, ATP is tethered to Sepharose beads via its γ-phosphate, enabling the nucleotide to bind to ATP binding proteins such as Hsp90 and HtpG, but is nonhydrolyzable ([24]). After proteins are bound to the ATP Sepharose resin, small molecules with affinity for the ATP binding site will elute the GFP-fusion protein, which can readily be detected and quantified on a plate fluorometer.
These compounds were selected for testing based on their known binding to human Hsp90 ([25], [26]).

[2] = biological target: human Hsp90 (Homo sapiens, UniProt P07900); experiment: FLECS assay, elution of GFP-Hsp90 from ATP Sepharose; assay type: binding; set-up: His6 (N); made in house; host or cells: E. coli BL21(DE3); conditions: in words
Experimental: as §1, §2
Subtle single amino acid differences are present within the catalytic clefts of these proteins, especially between residues that contact the nucleotide. […] After proteins are bound to the ATP Sepharose resin, small molecules with affinity for the ATP binding site will elute the GFP-fusion protein, which can readily be detected and quantified on a plate fluorometer. […]

[3] = test system: B. burgdorferi; experiment: Fixed or denatured B. burgdorferi imaging, flagellin costaining and CLEM; assay type: cell-based, Borrelia burgdorferi
Experimental: Bacterial cultures in logarithmic phase were washed and resuspended in phosphate-buffered saline (PBS). Suspension was added to a positively charged slide, and an equal volume of 3:1 methanol-acetic acid was added to the suspension for 5 min. Slides were washed with 0.01% Tween 20/PBS (PBS-T) followed by PBS. Ten percent nonfat dry milk/PBS blocking solution was added for 45 min. Slides were washed with PBS and incubated for 45 min with 1:500 flagellin antibody (Rockland 200-401-C14) diluted in 1% nonfat dry milk/PBS. Slides were washed with PBS-T and then incubated for 30 min with FITC-conjugated anti-rabbit (Invitrogen catalog number A11008; 1:500 dilution), containing 10 μM HS-198. […].
Correlative light electron microscopy (CLEM) was performed by Shannon Modla and Jeff Caplan at the bioimaging center of the Delaware Biotechnology Institute. Cells were attached to an Ibidi μ-dish containing an imprinted 500-μm cell location grid using 4% paraformaldehyde (PFA) for 20 min. Cells were then incubated with 10 μM HS-198 for 10 min followed by a PBS wash. PBS filled the dish to the top for transport to the Delaware Institute for further processing. The cells were then imaged using Zeiss 880 Airyscan. […]

T1 sequence (P0A6Z3 whole entry): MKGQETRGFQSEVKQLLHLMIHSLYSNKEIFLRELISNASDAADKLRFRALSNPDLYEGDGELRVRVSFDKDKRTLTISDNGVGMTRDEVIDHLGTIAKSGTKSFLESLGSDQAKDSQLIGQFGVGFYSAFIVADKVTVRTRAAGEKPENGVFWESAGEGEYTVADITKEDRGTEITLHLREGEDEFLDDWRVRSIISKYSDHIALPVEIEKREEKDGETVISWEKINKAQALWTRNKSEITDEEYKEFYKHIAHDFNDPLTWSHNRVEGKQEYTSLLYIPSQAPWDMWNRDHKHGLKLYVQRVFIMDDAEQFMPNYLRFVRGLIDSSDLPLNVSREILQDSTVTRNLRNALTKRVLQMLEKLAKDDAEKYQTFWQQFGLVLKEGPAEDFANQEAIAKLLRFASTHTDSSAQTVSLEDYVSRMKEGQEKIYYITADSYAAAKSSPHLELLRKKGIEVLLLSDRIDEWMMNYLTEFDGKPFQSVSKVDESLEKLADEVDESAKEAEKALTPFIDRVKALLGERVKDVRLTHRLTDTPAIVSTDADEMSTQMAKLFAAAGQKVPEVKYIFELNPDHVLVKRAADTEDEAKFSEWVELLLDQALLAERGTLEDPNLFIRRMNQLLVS

Cc1nn(-c2ccc(C(=O)N(C)C)c(NCCCOCCOCCOCCOCCOCCCNCc3ccc(C(=C\C=C4/N(CCCCS(=O)(=O)O)c5ccccc5C4(C)C)/C=C/C4=[N+](CCCCS(=O)(=O)[O-])c5ccccc5C4(C)C)cc3)c2)c2c1C(=O)CC(C)(C)C2 [HS-198]
Kd [1]: 5.8 ± 0.6 µM | Release of E. coli GFP-HtpG from ATP Sepharose ([1]; in words): released | Release of recombinant human GFP-Hsp90α from ATP Sepharose beads [2]: did not | Localization within the spirochete ([3]; 10 μM, flagellin antibody costaining, CLEM): accumulated inside the protoplasmic cylinder | Staining of denatured spirochetes ([3]; heat denaturation (5 min at 90°C or 15 min at 50°C) or alcohol fixation (2:1 ethanol), data not shown): capable of staining spirochetes
